This passage reports melting point results from patent publication US8012499B2, “Anthranilamides for controlling invertebrate pests” (E.I. du Pont de Nemours and Company, priority 2005, dated 2011).

A word on the melting point: it is the temperature of the solid-liquid transition.

In the case of `C/N=C(/C(=O)NC)c1cc(Cl)cc(C)c1NC(=O)c1cc(Br)nn1-c1ncccc1Cl` [Example 6, 3-bromo-N-[4-chloro-2-methyl-6-[(1E)-2-(methylamino)-1-(methylimino)-2-oxoethyl]phenyl]-1-(3-chloro-2-pyridinyl)-1H-pyrazole-5-carboxamide], the melting point was 234 °C (dec.). To `CNC(=O)C(=O)c1cc(Cl)cc(C)c1NC(=O)c1cc(Br)nn1-c1ncccc1Cl` [Example 7, 3-bromo-N-[4-chloro-2-methyl-6-[(methylamino)oxoacetyl]phenyl]-1-(3-chloro-2-pyridinyl)-1H-pyrazole-5-carboxamide] belongs 247 °C; to `CCN(CC)C(=O)C(=O)c1cc(C)cc(C)c1NC(=O)c1cc(C(F)(F)F)nn1-c1ncccc1Cl` [Example 2, 1-(3-chloro-2-pyridinyl)-N-[2-[(diethylamino)oxoacetyl]-4,6-dimethylphenyl]-3-(trifluoromethyl)-1H-pyrazole-5-carboxamide], 223 to 227 °C.
